One data set can be described thus: Human studies: safety. It counts as in vivo. As to conditions: patients 1-4, 200-207 MBq. The source says: (§1) patient with squamous cell carcinoma of the oesophagus • 2. Person with metastatic ovarian carcinoma • 3. Person with metastatic cutaneous squamous cell carcinoma • 4. Person with invasive ductal breast carcinoma.
The subject of a further data set is tumour deposits. Description: Human studies: tumour uptake by PET and histological correlation. It counts as in vivo.
Text: as §1
Whilst blood pool and clearance are reproducible, tumour uptake and clearance vary by tumour type.
Dissected tumours were fixed in formalin, embedded in paraffin and 4 μm thick sections were cut. Adjacent sections were stained for apoptotic cells using TUNEL (Abcam, Cat #206386) or morphology using haematoxylin and eosin. For TUNEL staining, sections were deparaffinized in xylene, rehydrated in decreasing concentrations of ethanol and permeabilized with Proteinase K for 20 min at room temperature. The endogenous peroxidase activity was quenched with 3% H2O2 for 5 min. Apoptotic cells were labelled with biotinylated terminal deoxynucleotidyl transferase at 37° C. in a humidified chamber for 2 h followed by a 30 min incubation with streptavidin-HRP conjugate. HRP-positive cells were developed using diaminobenzidine and sections counterstained with methyl green (Sigma). Whole sections were imaged using PowerMosaic scanning at 10× magnification on a Leica DM6000D microscope.

Entries after “also recorded” stand apart in the source; their conditions may differ.

Regarding `O=C(O)CNC(=O)[C@H](CSCC(=O)Nc1ccc([As](O)O)cc1)NC(=O)CC[C@H](NC(=O)CCC1C(=O)[O][68Ga]2[O]C(=O)CN3CCN(CCN1CC3)CC(=O)[O]2)C(=O)O` (some centres unmarked) [^68Ga-NODAGA-GSAO], the adverse events entry in the data set “Human studies: safety” was “no related or unrelated serious adverse events or adverse events; also recorded: safe, well-tolerated and without adverse effects”. Further, the “tumour uptake SUVmean” value in the data set with tumour deposits (breast carcinoma) was 1.8; in the data set with tumour deposits (metastatic cutaneous squamous cell carcinoma), 4.1; with tumour deposits (metastatic ovarian carcinoma), 1.9; in the data set on tumour deposits (patient 3, right axillary nodal metastasis), 4.1; with tumour deposits (squamous cell carcinoma of the oesophagus), 3.8. Further, in the data set on tumour deposits (histopathology), the “correlation of tumour uptake with dead and dying cells” value is “correlate with the proportion of dead and dying cells within the tumour”. Moreover, the “tumour uptake relative to blood pool” value in the data set on tumour deposits (tumours with high uptake) was “up to 2 fold”.

(Values after patent publication US20250269072A1, “PROCESSES FOR PREPARING RADIOLABELLED CONJUGATES” (CENTENARY INSTITUTE OF CANCER MEDICINE AND CELL BIOLOGY, priority 2021, published 2025).)
